Data as given in patent publication US7781423B2, “Compounds to promote regeneration of bone marrow” (priority 2007, dated 2010).

Test system: human bone marrow-derived mesenchymal stem cells
Experiment: Survival of mesenchymal stem cells in the absence of serum (viable cell number)
Format: cell-based
Conditions: serum-free medium
Method: Bone marrow aspirates were taken from normal adult donors after an informed consent was signed. Bone marrow mesenchymal stem cells were prepared by a widely used technique as described earlier by others. Pittenger, M. F., Mackay, A. M., Beck, S. C., Jaiswal, R. K., Douglas, R., Mosca, J. D., Moorman, M. A., Simonetti, D. W., Craig, S. and Marshak, D. R., “Multilineage potential of adult human mesenchymal stem cells,” Science, 284, 143-147 (1999). […] When cells grew to about 80% confluence, they were suspended and harvested by incubating with a ready-made solution containing 0.25% trypsin and 1 mM EDTA (Sigma-Aldrich, St. Louis, Mo.) for 5 minutes at 37° C.; this cell suspension is designated as passage 1. […]
The total numbers of nucleated and viable cells were determined with a hemocytometer, using Turck's solution and trypan blue stain, respectively. […]
In the experiments reported in Table 7 and Table 8, human bone marrow-derived mesenchymal stem cells were split at 1:3 and then incubated for 24 hours in 10% fetal calf serum-containing medium to about 30-35% confluence. […] The data are expressed as mean values±std. dev. of 3 determinations.

Cc1c(OCC(O)C[N+](C)(C)C)cc2c(=O)c3ccccc3sc2c1C.[Cl-] (centres unmarked) [CCcompound1, [3-(3,4-Dimethyl-9-oxo-9H-thioxanthen-2-yloxy)-2-hydroxypropyl]trimethyl-ammonium chloride]
effect on cell numbers (survival) (10 μM): did not reach statistical significance | effect on cell numbers (survival) (50 μM): no effect
